# Laboratory results: patent publication US8476036B2, “Nonluminogenic assay for living cells” (Promega Corporation, priority 2004, dated 2013)
# Marks after values point to notes of the source that are not given here. Numbered stars: 1 amine (or outer) side, 2 acyl side, 3 side chain; on linkers, the order of the positions; unused ones are H or OH. Square brackets hold non-standard residues; d marks the D form. Peptide text beside a SMILES is read from it. * marks the point of attachment. X1 = O=C(O)C1CSC(c2nc3ccc(N*)cc3s2)=N1; AFC = O=c1cc(C(F)(F)F)c2ccc(N*)cc2o1; Glutaryl = O=C(CCCC(=O)[*:2])[*:1]; AMC = Cc1cc(=O)oc2cc(N*)ccc12; Suc = O=C(CCC(=O)[*:2])[*:1]; Cbz = O=C(OCc1ccccc1)*
# Columns and labels:
# Assay type in all cases: cell-based
# HL-60 or Jurkat [1] = assay: Protease retention substrate selectivity, untreated viable cells; set-up: key: None denotes no statistical activity above control population.; (+) to (+++++) denotes the range of activity above control population from modest to robust; (+) to (+++++) denotes the range of activity above control population from modest to robust; (+) to (+++++) denotes the range of activity above control population from modest to robust; (+) to (+++++) denotes the range of activity above control population from modest to robust; (+) to (+++++) denotes the range of activity above control population from modest to robust; settings: substrate cleavage activity above control in untreated viable cells; 15-30 minutes at 37° C.
# Excerpt: (§1) Ala-Ala-Phe-AMC was obtained from Promega. Z-Leu-Leu-Val-Tyr-aminoluciferin (LLVY corresponds to SEQ ID NO:18), Z-Leu-Arg-aminoluciferin, Z-Phe-Arg-aminoluciferin, Ala-Ala-Phe-aminoluciferin, (Ala-Ala-Phe)2-R110, and (Gly-Phe)2-R110 were synthesized by Promega Biosciences. Suc-Ala-Ala-Phe-AMC, H-Phe-AMC, H-Tyr-AMC, Glutyl-Ala-Ala-Phe-AMC (EMF corresponds to SEQ ID NO:32), H-Gly-Phe-AMC, Z-Gly-Ala-Met-AMC, Suc-Leu-Leu-Val-Tyr-AMC (LLVY corresponds to SEQ ID NO:18), D-Ala-Leu-Lys-AMC, H-Gly-Ala-AMC, H-Gly-Gly-AMC, Suc-Ala-Ala-Phe-AMC, Z-Arg-Leu-Arg-Gly-Gly-AMC (RLRGG corresponds to SEQ ID NO:29), Z-Leu-Arg-Gly-Gly-AMC (LRGG corresponds to SEQ ID NO:30) and Ac-Ala-Ala-Tyr-AMC were sourced from Bachem. Gly-Phe-AFC, Pro-Phe-Arg-AMC, Gly-Gly-Leu-AMC, and Ser-Tyr-AFC were obtained from Calbiochem. Z-Phe-Arg-AMC and Suc-Arg-Pro-Phe-His-Leu-Leu-Val-Tyr-AMC (RPHLLVY corresponds to SEQ ID NO:31) were purchased from Sigma.
# (§2) All substrates were solubilized in DMSO from 10 to 100 mM depending upon inherent solubility. Fluorescent substrates were diluted to 100 μM to 1 mM in 10 mM Hepes, pH 7.5 or matched cell culture medium with 10% serum and added in 1/10th volumes to lysed (freeze fractured, sonicated, or detergent) or untreated viable cells in white-walled, clear bottomed 96-well plates. HL-60 or Jurkat were used in the experimentation interchangeably because of their easily manipulated suspension phenotype. Plates were incubated for 15-30 minutes at 37° C. prior to measuring fluorescence by the CYTOFLUOR® II.
# (§3) Luminescent substrates were added to a luciferin detection cake (Promega V859A) resuspended in 2 ml 10 mM Hepes, pH 7.5 to 500 μM. ⅕^th volume of the proluminescent reaction mixes were added to lysed (freeze fractured, sonicated, or detergent) or untreated viable cells in white-walled, clear bottomed 96-well plates. Again, HL-60 or Jurkat were used in the experimentation interchangeably. Plates were incubated at 37° C. in a MeCour' circulating heat block controlled by a Caron 2050W exchange unit. Luminescence was measured between 15 and 30 minutes (signal steady state).
# (§4) A broad variety of proteolytic substrates were examined in an effort to characterize potential substrate preferences for protease release or retention in compromised or viable cells (see Table 4). […] Non-blocked substrates (H- and the like) were examined to include the contribution of aminopeptidase activities. From this panel, at least three proteolytic profiles emerged: an aminopeptidase-like activity preferring unblocked Ala-Ala-Phe tripeptide, a proteosomal (chymotrypsin-like) activity measured by release of blocked Leu-Leu-Val-Tyr (SEQ ID NO:18) peptides, and an exceedingly labile activity by Gly-Phe, Gly-Ala, Phe-, Tyr- or Gly-Gly-Leu substrates. The latter activities were only measurable in viable, intact cells. Of further significance is that several fluorophores or proluminescent labels can be used to detect these activities, ultimately allowing for enhanced downstream multiplexing flexibility.
# HL-60 or Jurkat [2] = assay: Protease release substrate selectivity, lysed (freeze fractured, sonicated, or detergent) cells; set-up: key: None denotes no statistical activity above control population.; (+) to (+++++) denotes the range of activity above control population from modest to robust; (+) to (+++++) denotes the range of activity above control population from modest to robust; (+) to (+++++) denotes the range of activity above control population from modest to robust; (+) to (+++++) denotes the range of activity above control population from modest to robust; (+) to (+++++) denotes the range of activity above control population from modest to robust; settings: substrate cleavage activity above control in lysed cells; 15-30 minutes at 37° C.
# Excerpt: as §1, §2, §3, §4
# HL-60 cells = assay: Luminescent protease release assay with different enzyme targets; settings: HL-60 with or without sonication, 15 minutes at 37° C.
# Method: Actively doubling HL-60 cells were adjusted to 100,000 cells/ml and split into two aliquots. One aliquot was sonicated using a microtip MISONIXTM™ 3000 with 30% power for three 5 second pulses. The other aliquot was held at 37° C. The cell suspension and lysates were then two-fold serially diluted in RPMI 1640 +10% FBS in 100 μl volumes. Medium only served as the no cell control. A luciferin detection reagent cake (Promega V859A) was resuspended with 2.0 ml of 10 mM Hepes, pH 7.5. The luciferin detection reagent was then divided and made 1 mM with either Z-Leu-Leu-Val-Tyr-aminoluciferin (LLVY corresponds to SEQ ID NO:18) or Ala-Ala-Phe-aminoluciferin. Each reagent was added to independent replicates of the plate in 1/10th volumes and allowed to incubate for 15 minutes at 37° C. in the Me'Cour thermal jacketed water bath holder before luminescence measurement using the BMG FLUOstar Optima.
# SK-MEL-28 cells = assay: Live cell protease retention multiplexed with caspase 3/7 activity, SK-MEL-28; settings: SK-MEL-28, serial dilutions, 5 hours
# Method: SK-MEL-28 or ACHN cells were seeded into white-walled, clear bottomed 96 well plates at a density of 10,000 cells per well in 100 μl volumes and allowed to attach at 37° C. in 5% CO2 for a period of 2 hours. After attachment, 50 μl of medium was carefully removed and replaced with serial dilutions of either ionomycin or staurosporine in MEM+10% FBS. Medium only served as control. The plate was incubated for an additional 5 hours. A 1 mM solution of Gly-Phe-AFC was made in MEM and added to the wells in a 1/10th volume. Resulting fluorescence was measured using a CYTOFLUOR® II. Caspase-GIo™ 3/7 reagent was then added and luminescence measure using a BMG FLUOstar Optima.
compound,measurement,setting,value
"CC(N)C(=O)NC(C)C(=O)NC(Cc1ccccc1)C(=O)Nc1ccc2nc(C3=NC(C(=O)O)CS3)sc2c1 (stereo not drawn) [Ala-Ala-Phe-Aminoluc, Ala-Ala-Phe-aminoluciferin]",Retention,HL-60 or Jurkat [1],None
same,Release,HL-60 or Jurkat [2],+++++
"Cc1cc(=O)oc2cc(NC(=O)[C@H](Cc3ccccc3)NC(=O)[C@H](C)NC(=O)[C@H](C)NC(=O)CCCC(=O)O)ccc12 [Gluty-Ala-Ala-Phe-AMC, Glutyl-Ala-Ala-Phe-AMC] (Glutaryl-Ala-Ala-Phe-{AMC})",Retention,HL-60 or Jurkat [1],None
same,Release,HL-60 or Jurkat [2],None
NCC(=O)N[C@@H](Cc1ccccc1)C(=O)Nc1ccc2c(C(F)(F)F)cc(=O)oc2c1 [Gly-Phe-AFC] (H-Gly-Phe-{AFC}),Retention,HL-60 or Jurkat [1],+++++
same,Release,HL-60 or Jurkat [2],None
"Cc1cc(=O)oc2cc(NC(=O)[C@H](Cc3ccccc3)NC(=O)CN)ccc12 [Gly-Phe-AMC, H-Gly-Phe-AMC] (H-Gly-Phe-{AMC})",Retention,HL-60 or Jurkat [1],++
same,Release,HL-60 or Jurkat [2],None
Cc1cc(=O)oc2cc(NC(=O)[C@H](CCCCN)NC(=O)[C@H](CC(C)C)NC(=O)[C@@H](C)N)ccc12 [H-D-Ala-Leu-Lys-AMC] (H-[dA]-Leu-Lys-{AMC}),Retention,HL-60 or Jurkat [1],None
same,Release,HL-60 or Jurkat [2],None
Cc1cc(=O)oc2cc(NC(=O)C(C)NC(=O)CN)ccc12 (stereo not drawn) [H-Gly-Ala-AMC],Retention,HL-60 or Jurkat [1],++
same,Release,HL-60 or Jurkat [2],None
Cc1cc(=O)oc2cc(NC(=O)CNC(=O)CN)ccc12 [H-Gly-Gly-AMC] (H-Gly-Gly-{AMC}),Retention,HL-60 or Jurkat [1],None
same,Release,HL-60 or Jurkat [2],None
Cc1cc(=O)oc2cc(NC(=O)[C@@H](N)Cc3ccccc3)ccc12 [H-Phe-AMC],Retention,HL-60 or Jurkat [1],+++
same,Release,HL-60 or Jurkat [2],None
Cc1cc(=O)oc2cc(NC(=O)[C@H](CCCN=C(N)N)NC(=O)[C@H](Cc3ccccc3)NC(=O)[C@@H]3CCCN3)ccc12 [H-Pro-Phe-Arg-AMC] (H-Pro-Phe-Arg-{AMC}),Retention,HL-60 or Jurkat [1],None
same,Release,HL-60 or Jurkat [2],None
Cc1cc(=O)oc2cc(NC(=O)[C@@H](N)Cc3ccc(O)cc3)ccc12 [H-Tyr-AMC],Retention,HL-60 or Jurkat [1],++
same,Release,HL-60 or Jurkat [2],None
N[C@@H](CO)C(=O)N[C@@H](Cc1ccc(O)cc1)C(=O)Nc1ccc2c(C(F)(F)F)cc(=O)oc2c1 [Ser-Tyr-AFC] (H-Ser-Tyr-{AFC}),Retention,HL-60 or Jurkat [1],None
same,Release,HL-60 or Jurkat [2],None
Cc1cc(=O)oc2cc(NC(=O)[C@H](Cc3ccccc3)NC(=O)[C@H](C)NC(=O)[C@H](C)NC(=O)CCC(=O)O)ccc12 [Suc-Ala-Ala-Phe-AMC] (Suc-Ala-Ala-Phe-{AMC}),Retention,HL-60 or Jurkat [1],None
same,Release,HL-60 or Jurkat [2],None
Cc1cc(=O)oc2cc(NC(=O)[C@H](Cc3ccc(O)cc3)NC(=O)[C@@H](NC(=O)[C@H](CC(C)C)NC(=O)[C@H](CC(C)C)NC(=O)CCC(=O)O)C(C)C)ccc12 [Suc-Leu-Leu-Val-Tyr-AMC] (Suc-LLVY-{AMC}),Retention,HL-60 or Jurkat [1],None
same,Release,HL-60 or Jurkat [2],+
Cc1cc(=O)oc2cc(NC(=O)CNC(=O)CNC(=O)[C@H](CCCN=C(N)N)NC(=O)[C@H](CC(C)C)NC(=O)[C@H](CCCN=C(N)N)NC(=O)OCc3ccccc3)ccc12 [Z-Arg-Leu-Arg-Gly-Gly-AMC],Retention,HL-60 or Jurkat [1],None
same,Release,HL-60 or Jurkat [2],None
CSCC[C@H](NC(=O)[C@H](C)NC(=O)CNC(=O)OCc1ccccc1)C(=O)Nc1ccc2c(C)cc(=O)oc2c1 [Z-Gly-Ala-Met-AMC] (Cbz-Gly-Ala-Met-{AMC}),Retention,HL-60 or Jurkat [1],None
same,Release,HL-60 or Jurkat [2],None
Cc1cc(=O)oc2cc(NC(=O)[C@H](CC(C)C)NC(=O)CNC(=O)CNC(=O)OCc3ccccc3)ccc12 [Z-Gly-Gly-Leu-AMC] (Cbz-Gly-Gly-Leu-{AMC}),Retention,HL-60 or Jurkat [1],++*
same,Release,HL-60 or Jurkat [2],None
"CC(C)C[C@H](NC(=O)OCc1ccccc1)C(=O)N[C@@H](CCCNC(=N)N)C(=O)Nc1ccc2nc(C3=N[C@@H](C(=O)O)CS3)sc2c1 [Z-Leu-Arg-Aluc, Z-Leu-Arg-aminoluciferin]",Retention,HL-60 or Jurkat [1],None
same,Release,HL-60 or Jurkat [2],None
Cc1cc(=O)oc2cc(NC(=O)CNC(=O)CNC(=O)[C@H](CCCN=C(N)N)NC(=O)[C@H](CC(C)C)NC(=O)OCc3ccccc3)ccc12 [Z-Leu-Arg-Gly-Gly-AMC] (Cbz-LRGG-{AMC}),Retention,HL-60 or Jurkat [1],None
same,Release,HL-60 or Jurkat [2],None
"CC(C)CC(NC(=O)OCc1ccccc1)C(=O)NC(CC(C)C)C(=O)NC(C(=O)NC(Cc1ccc(O)cc1)C(=O)Nc1ccc2nc(C3=NC(C(=O)O)CS3)sc2c1)C(C)C (stereo not drawn) [Z-Leu-Leu-Val-Tyr-Aluc, Z-Leu-Leu-Val-Tyr-aminoluciferin] (Cbz-LLVY-X1; configuration not given here)",Retention,HL-60 or Jurkat [1],None
same,Release,HL-60 or Jurkat [2],++
same,Performance as protease release substrate,HL-60 cells,performed less optimally than the AAF-aminoluciferin sequence
Cc1cc(=O)oc2cc(NC(=O)C(CCCN=C(N)N)NC(=O)C(Cc3ccccc3)NC(=O)OCc3ccccc3)ccc12 (stereo not drawn) [Z-Phe-Arg-AMC] (Cbz-Phe-Arg-{AMC}; configuration not given here),Retention,HL-60 or Jurkat [1],None^1
same,Release,HL-60 or Jurkat [2],None
"N=C(N)NCCCC(NC(=O)C(Cc1ccccc1)NC(=O)OCc1ccccc1)C(=O)Nc1ccc2nc(C3=NC(C(=O)O)CS3)sc2c1 (stereo not drawn) [Z-Phe-Arg-Aluc, Z-Phe-Arg-aminoluciferin]",Retention,HL-60 or Jurkat [1],None
same,Release,HL-60 or Jurkat [2],None
C[C@H](CCC(=O)O)C[C@H](C)C[C@H](C)C(=O)/C=C(\O)[C@H](C)C[C@H](C)C/C=C/[C@@H](C)[C@@H](O)[C@@H](C)[C@@H](O)C[C@@H]1CC[C@@](C)([C@H]2CC[C@@](C)([C@@H](C)O)O2)O1 [ionomycin],Cytotoxicity profile (live cell fluorescence and caspase 3/7 activity),SK-MEL-28 cells,necrotic-type profile
Suc-RPFHLLVY-{AMC} [S-R-P-F-H-L-L-V-Y-AMC],Retention,HL-60 or Jurkat [1],None
same,Release,HL-60 or Jurkat [2],None
